According to patent US11399542B2, “Pesticidally active heterocyclic derivatives with sulfur containing substituents” (SYNGENTA PARTICIPATIONS AG, priority 2017, dated 2022):

How the values were obtained:
Assay type in all cases: in vivo
[1] = system: Spodoptera littoralis (Egyptian Cotton Leaf Worm); experiment: Example B1: Activity against Spodoptera littoralis, sprayed cotton leaf discs; details: foliar, 72 h, application rate 200 ppm, L1 larvae on cotton leaf discs, 3 days after infestation, read-out: control (at least one of mortality, anti-feedant effect, growth inhibition)
Method: Cotton leaf discs were placed onto agar in 24-well microtiter plates and sprayed with aqueous test solutions prepared from 10′000 ppm DMSO stock solutions. After drying the leaf discs were infested with five L1 larvae. The samples were assessed for mortality, anti-feeding effect, and growth inhibition in comparison to untreated samples 3 days after infestation. Control of Spodoptera littoralis by a test sample is given when at least one of the categories mortality, anti-feedant effect, and growth inhibition is higher than the untreated sample.

[2] = system: Plutella xylostella (Diamond Back Moth); experiment: Example B3: Activity against Plutella xylostella, artificial diet, L2 larvae; details: 120 h, application rate 200 ppm, L2 larvae on artificial diet, 5 days after infestation, read-out: effect in at least one of the two categories (mortality or growth inhibition)
Method: (§1) 24-well microtiter plates with artificial diet were treated with aqueous test solutions prepared from 10′000 ppm DMSO stock solutions by pipetting. After drying, the plates were infested with L2 larvae (10 to 15 per well). The samples were assessed for mortality and growth inhibition in comparison to untreated samples 5 days after infestation.

[3] = system: Diabrotica balteata (Corn Root Worm); experiment: Example B4: Activity against Diabrotica balteata, sprayed maize sprouts; details: 96 h, application rate 200 ppm, L2 larvae on maize sprouts, 4 days after infestation, read-out: effect in at least one of the two categories (mortality or growth inhibition)
Method: as §1, with “Maize sprouts placed onto an agar layer in 24-well” for “24-well”, “plates” for “plates with artificial diet”, “spraying.” for “pipetting.”, “(6” for “(10”, “10” for “15”, “4” for “5”

[4] = system: Myzus persicae (Green Peach Aphid); experiment: Example B5: Activity against Myzus persicae, sprayed sunflower leaf discs; details: foliar, 144 h, application rate 200 ppm, mixed-age aphids on sunflower leaf discs, 6 days after infestation
Method: (§2) Sunflower leaf discs were placed on agar in a 24-well microtiter plate and sprayed with aqueous test solutions prepared from 10′000 ppm DMSO stock solutions. After drying, the leaf discs were infested with an aphid population of mixed ages. The samples were assessed for mortality 6 days after infestation.

[5] = system: Myzus persicae (Green Peach Aphid); experiment: Example B6: Activity against Myzus persicae, systemic via roots of pea seedlings; details: 144 h, test rate 24 ppm, pea seedling roots in test solution, 6 days
Method: Roots of pea seedlings infested with an aphid population of mixed ages were placed directly in the aqueous test solutions prepared from 10′000 DMSO stock solutions. The samples were assessed for mortality 6 days after placing seedlings in test solutions.

[6] = system: Bemisia tabaci (Cotton White Fly); experiment: Example B7: Activity against Bemisia tabaci, sprayed cotton leaf discs; details: foliar, 144 h, application rate 200 ppm, adult white flies on cotton leaf discs, 6 days after incubation
Method: Cotton leaf discs were placed on agar in 24-well microtiter plates and sprayed with aqueous test solutions prepared from 10′000 ppm DMSO stock solutions. After drying the leaf discs were infested with adult white flies. The samples were checked for mortality 6 days after incubation.

[7] = system: Euschistus heros (Neotropical Brown Stink Bug); experiment: Example B9: Activity against Euschistus heros, sprayed soybean leaf; details: 120 h, application rate 200 ppm, N2 nymphs on soybean leaf, 5 days after infestation, read-out: effect in at least one of the two categories (mortality or growth inhibition)
Method: Soybean leaf on agar in 24-well microtiter plates were sprayed with aqueous test solutions prepared from 10′000 ppm DMSO stock solutions. After drying the leaf were infested with N2 nymphs. The samples were assessed for mortality and growth inhibition in comparison to untreated samples 5 days after infestation.

[8] = system: Tetranychus urticae (Two-Spotted Spider Mite); experiment: Example B10: Activity against Tetranychus urticae, sprayed bean leaf discs; details: foliar, 192 h
Method: Bean leaf discs on agar in 24-well microtiter plates were sprayed with aqueous test solutions prepared from 10′000 ppm DMSO stock solutions. After drying the leaf discs were infested with a mite population of mixed ages. The samples were assessed for mortality on mixed population (mobile stages) 8 days after infestation.

[9] = system: Spodoptera littoralis (Egyptian Cotton Leaf Worm); experiment: Example B2: Activity against Spodoptera littoralis, systemic via lettuce roots in agar; details: 144 h, test rate 12.5 ppm, lettuce root uptake, 6 days after infestation, read-out: effect in at least one of the three categories (mortality, anti-feeding, or growth inhibition)
Source text: Test compounds were applied by pipette from 10′000 ppm DMSO stock solutions into 24-well plates and mixed with agar. Lettuce seeds were placed onto the agar and the multi well plate was closed by another plate which contained also agar. After 7 days the compound was absorbed by the roots and the lettuce grew into the lid plate. The lettuce leaves were then cut off into the lid plate. Spodoptera eggs were pipetted through a plastic stencil onto a humid gel blotting paper and the lid plate was closed with it. The samples were assessed for mortality, anti-feedant effect and growth inhibition in comparison to untreated samples 6 days after infestation.

[10] = system: Frankliniella occidentalis (Western Flower Thrips); experiment: Example B8: Activity against Frankliniella occidentalis, sprayed sunflower leaf discs; details: foliar, 168 h, application rate 200 ppm, mixed ages on sunflower leaf discs, 7 days after infestation
Method: as §2, with “in” for “in a”, “plates” for “plate”, “[…]” for “10′000 ppm”, “drying” for “drying,”, “a Frankliniella” for “an aphid”, “7” for “6”

[11] = system: Aedes aegypti (Yellow Fever Mosquito); experiment: Example B11: Activity against Aedes aegypti, dry deposit in tissue culture plates; details: 200 ppm in ethanol; adult females; after 48 h and/or 24 h
Method: Test solutions, at an application rate of 200 ppm in ethanol, were applied to 12 well tissue culture plates. Once the deposits were dry, five, two to five day old adult female Aedes aegypti were added to each well, and sustained with a 10% sucrose solution in a cotton wool plug. Assessment of knockdown was made one hour after introduction, and mortality was assessed at 24 and 48 hours after introduction.

Compound	percent control (mortality, anti-feedant effect or growth inhibition) at 200 ppm [1] [%]	percent effect (mortality or growth inhibition) at 200 ppm [2] [%]	percent effect (mortality or growth inhibition) at 200 ppm [3] [%]	mortality at 200 ppm [4] [%]	mortality at 24 ppm [5] [%]	mortality at 200 ppm [6] [%]	percent effect (mortality or growth inhibition) at 200 ppm [7] [%]	mortality at 200 ppm [8] [%]	percent effect (mortality, anti-feeding or growth inhibition) at 12.5 ppm [9] [%]	mortality at 200 ppm [10] [%]	control of Aedes aegypti [11]
CCn1c(=O)n(C)c2cc(S(=O)(=O)CC)c(-c3nc4cc(C(F)(F)F)cnc4n3C)cc21 [Compound P6, 1-ethyl-5-ethylsulfonyl-3-methyl-6-[3-methyl-6-(trifluoromethyl)imidazo[4,5-b]pyridin-2-yl]benzimidazol-2-one]	≥ 80	≥ 80	≥ 80	≥ 80	≥ 80	≥ 80	≥ 80	≥ 80	–	–	–
CCS(=O)(=O)c1cc2c(cc1-c1nc3cc(C(F)(F)F)cnc3n1C)n(C)c(=O)n2C [Compound P3, 5-ethylsulfonyl-1,3-dimethyl-6-[3-methyl-6-(trifluoromethyl)imidazo[4,5-b]pyridin-2-yl]benzimidazol-2-one]	≥ 80	≥ 80	≥ 80	≥ 80	≥ 80	≥ 80	≥ 80	–	≥ 80	≥ 80	at least 80%
CCn1c(=O)n(C)c2cc(-c3nc4cc(C(F)(F)F)cnc4n3C)c(S(=O)(=O)CC)cc21 [Compound P5, 1-ethyl-6-ethylsulfonyl-3-methyl-5-[3-methyl-6-(trifluoromethyl)imidazo[4,5-b]pyridin-2-yl]benzimidazol-2-one]	≥ 80	≥ 80	≥ 80	≥ 80	≥ 80	≥ 80	≥ 80	–	≥ 80	≥ 80	–
